The results in this text go back to article PMC4029847 (Journal of clinical pharmacology, 2013).

The target of the data set is T1, OATP1A2 (Homo sapiens, UniProt P46721).
T1 sequence (P46721 1-670): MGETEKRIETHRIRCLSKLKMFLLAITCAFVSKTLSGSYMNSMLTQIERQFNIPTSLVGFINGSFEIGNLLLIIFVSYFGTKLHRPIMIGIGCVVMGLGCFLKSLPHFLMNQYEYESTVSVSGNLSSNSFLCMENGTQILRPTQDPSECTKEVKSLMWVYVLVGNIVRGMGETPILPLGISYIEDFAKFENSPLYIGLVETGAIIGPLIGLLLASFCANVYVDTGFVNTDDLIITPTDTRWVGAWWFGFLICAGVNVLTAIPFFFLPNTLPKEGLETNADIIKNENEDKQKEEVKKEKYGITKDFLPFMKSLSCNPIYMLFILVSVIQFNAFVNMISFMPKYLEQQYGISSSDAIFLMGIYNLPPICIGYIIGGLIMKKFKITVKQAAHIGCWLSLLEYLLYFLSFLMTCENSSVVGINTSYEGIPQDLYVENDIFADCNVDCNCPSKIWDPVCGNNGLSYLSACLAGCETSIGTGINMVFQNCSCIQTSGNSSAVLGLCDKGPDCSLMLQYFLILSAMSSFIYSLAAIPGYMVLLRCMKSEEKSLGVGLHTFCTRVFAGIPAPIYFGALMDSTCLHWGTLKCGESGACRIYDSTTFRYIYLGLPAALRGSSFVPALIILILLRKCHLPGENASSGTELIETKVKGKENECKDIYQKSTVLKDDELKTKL
Nature of the data set: Inhibition of fexofenadine uptake in OATP1A2-transfected HEK293T/17 cells. The format is cell-based. Conditions: inhibitor 250 μmol/l, fexofenadine 5 μmol/l, 30 min.

Each structure is given as a SMILES string.

Turning to `O=C1OC(c2ccc(O)c(S(=O)(=O)O)c2)(c2ccc(O)c(S(=O)(=O)O)c2)c2c(Br)c(Br)c(Br)c(Br)c21` [BSP, bromosulfophthalein], the “Inhibition of fexofenadine uptake” value was “did not inhibit”.
